The source of these data is EP4610260B1, “ARYL HETEROCYCLIC KV1.3 INHIBITOR, PREPARATION METHOD THEREFOR, AND USE THEREOF” (Shanghai Shenshi Wise Technology Co., Ltd., priority 2022, dated 2024).

Molecules are shown by their SMILES.

The assay concerns Kv1.3 potassium channel. Nature of the assay: Whole-cell patch-clamp assay for inhibitory activity against Kv1.3 (peak current). It is filed as cell-based. The following applies: HEK293 cells stably expressing Kv1.3, room temperature. How it is done:
1. Assay for inhibitory activity of compounds against Kv1.X
HEK293 cells stably expressing Kv1.X (Kv1.1, Kv1.2, Kv1.3, Kv1.4, Kv1.5) potassium channels were cultured in DMEM medium containing 10% fetal bovine serum and 800 µg/mL G418 (geneticin) at a culture temperature of 37 °C and a carbon dioxide concentration of 5%.
1.2. Fluids used for recording
The extracellular fluid contained 40 mM NaCl, 3.5 mM KCl, 1 mM MgCl2•6H2O, 2 mM CaCl2•2H2O, 10 mM D-glucose, 10 mM HEPES, 1.25 mM NaH2PO4•2H2O, and the pH was adjusted to 7.4 with NaOH. The intracellular fluid contained 20 mM KCl, 115 mM K-Aspartic, 1 mM MgCl2•6H2O, 5 mM EGTA, 10 mM HEPES, 2 mM Na2-ATP, and the pH was adjusted to 7.2 with KOH.
The voltage stimulation protocol for recording whole-cell Kv1.X potassium currents via patch-clamp was as follows: After formation of a whole-cell seal, the cell membrane voltage was clamped at -80 mV, and then stepped to +40 mV for 500 ms. Data were acquired repeatedly every 30 s and the effect of the drug on Kv1.X currents was observed. […] Then, a slow capacitance compensation was given, and the membrane capacitance and series resistance were recorded. […]
Once the whole-cell recorded Kv1.X current stabilized, drug administration was started. […] For each cell, the current detected in the compound-free extracellular liquid was used as its own control group. […]
(In general: Patch clamp records ionic current or voltage across a cell membrane.)

For orientation: IC50 means the midpoint of a concentration-inhibition curve. Higher therefore signals a need for much substance. `Oc1ccc(Cl)c(Cl)c1[C@@H]1Cc2nnc([C@H]3C[C@@H](O)C3)n2C1` [Example 70, 3,4-Dichloro-2-((S)-3-((1s,3R)-3-hydroxycyclobutyl)-6,7-dihydro-5H-pyrrolo[2,1-c][1,2,4]triazol-6-yl)phenol] yielded an IC50 of 21.6 nM. Turning to `Oc1ccc(Cl)c(Cl)c1[C@@H]1Cc2nnc([C@H]3C[C@H](O)C3)n2C1` [Example 71, 3,4-dichloro-2-((S)-3-((1r,3S)-3-hydroxycyclobutyl)-6,7-dihydro-5H-pyrrolo[2,1-c][1,2,4]triazol-6-yl)phenol], 10.3 nM corresponded to half-maximal inhibition (IC50). Against the preceding compound, the IC50 is about 2.1-fold lower.
